Measured values from patent publication US9567586B2, “EpCAM aptamer for detection of cancer stem cells” (DEAKIN UNIVERSITY, priority 2012, dated 2017).

Assays:
[1] = system: PLC/PRF/5 hepatocellular carcinoma cell line; experiment: Tumoursphere formation in 96-well, PLC/PRF/5; type: cell-based, human
HT29 colon cancer cells = experiment: Tumoursphere formation in 96-well, HT29; type: cell-based, human; details: HT29, 3 μM Dox equivalent, 5 days
Procedure: Under non-adherent and serum-free conditions, only the cancer stem cells (CSCs) and progenitor cells survive and undergo self-renewal as well as proliferate to form tumour spheres. The inventor studied the ability of aptamer-Dox to target cancer stem cells by plating various cell doses of single-cell suspension of HT29 colon cancer cells in ultra-low attachment 96-wells in the presence of 3 μM of free Dox, 3 μM equivalent Dox conjugated with aptamer, 3 μM Dox-negative control aptamer or vehicle control for 5 days. Tumour spheres (with a size >50 μm) were enumerated.

Structure (SMILES): CC[C@@H](C(=O)[C@@H](C)[C@@H](O)[C@H](C)[C@@H]1O[C@@H]([C@@H](CC)C(=O)O)CC[C@@H]1C)[C@H]1O[C@]2(C=C[C@@H](O)[C@]3(CC[C@@](C)([C@H]4CC[C@](O)(CC)[C@H](C)O4)O3)O2)[C@H](C)C[C@@H]1C [Saline, Salinomycin]
- Number of wells with sphere ([1]; 1 cell seeded/well): 0/10
- Number of wells with sphere ([1]; 10 cells seeded/well): 0/10
- Number of wells with sphere ([1]; 100 cells seeded/well): 0/10
- Number of wells with sphere ([1]; 200 cells seeded/well): 0/10
- Number of wells with sphere (HT29 colon cancer cells; 1 cell seeded/well): 0/10
- Number of wells with sphere (HT29 colon cancer cells; 10 cells seeded/well): 0/10
- Number of wells with sphere (HT29 colon cancer cells; 100 cells seeded/well): 0/10
- Number of wells with sphere (HT29 colon cancer cells; 200 cells seeded/well): 2/10
